Read-outs that look alike come from different tables or passages of the source. Each block holds one compound with its values, some of them ahead of it.
How the values were obtained:
[1] = Stability of benzothiazolim-squaraine dye and bioconjugates in aqueous solution, fluorescence intensity at 665 nm; assay type: physicochemical; conditions: 665 nanometers, ambient temperature
[2] = Stability of cyanine blue dye and conjugates in aqueous solution, fluorescence intensity at 670 nm; assay type: physicochemical; conditions: 670 nanometers, ambient temperature
[3] = Blood clearance in rats monitored by fluorescence from ear capillaries; conditions: rat, injected through lateral tail vein; excitation 780 nm, emission 830 nm
Protocol: A 500 μL portion of indocyanine green solution (0.8 mg/mL) was injected through the lateral tail vein of Sprague-Dawley or Fischer rats. Blood clearance of the dye bioconjugate was monitored by fluorescence signal emanating from the capillaries of the ear surface using a laser fluorescence apparatus (excitation, 780 nm; emission 830 nm).

[4] = 822 nanometers, ambient temperature, aqueous solution
Protocol: An aqueous solution of indocyanine green (ICG) and the carriers, inulin, poly-d,l-aspartic acid, polyguanylic acid, MBSA, and γ-cyclodextrin were prepared and the fluorescence intensity was monitored at ambient temperature at various time intervals.

[5] = in vivo; cited from earlier work
[6] = cited from earlier work
[7] = Stability of carboxyphloroglucinol-squaraine dye and bioconjugates in aqueous solution, fluorescence intensity at 613 nm; assay type: physicochemical; conditions: 613 nanometers (λex=515), ambient temperature

Percent Decrease in Fluorescence ([1]; 2 Hours): 92% | Percent Decrease in Fluorescence ([1]; 4 Hours): 64% | Percent Decrease in Fluorescence ([1]; 24 Hours): 46%
Structure (SMILES): O=C(O)CN1/C(=C/C2=C(O)C(=C/c3sc4ccccc4[n+]3CC(=O)O)/C2=O)Sc2ccccc21 [Benzothiazolim Dye/Water, Benzothiazolium Squaraine Dye]

Percent Decrease in Fluorescence ([2]; 2 Hours): 20% | Percent Decrease in Fluorescence ([2]; 4 Hours): 42% | Percent Decrease in Fluorescence ([2]; 24 Hours): 99%
Structure (SMILES): O=C(O)CN1/C(=C/C=C/C=C/c2sc3ccccc3[n+]2CC(=O)O)Sc2ccccc21 [Cyanine Blue Dye/Water, Cyanine Blue Dye]

Structure (SMILES): CC1(C)C(/C=C/C=C/C=C/C=C2/N(CCCCS(=O)(=O)O)c3ccc4ccccc4c3C2(C)C)=[N+](CCCCS(=O)(=O)O)c2ccc3ccccc3c21.[Na+].[Na+] [indocyanine green, Indocyanine Green Dye]
time constant (τ) for blood clearance [3]: 138 s | Percent Decrease in Fluorescence ([4]; 2 Hours): 0% | Percent Decrease in Fluorescence ([4]; 4 Hours): 19% | Percent Decrease in Fluorescence ([4]; 24 Hours): 48% | plasma half-life [5]: very short | uptake by the liver [5]: rapidly taken up by the liver | degradation in aqueous media [6]: undergoes degradation in aqueous media with loss of fluorescence

Percent Decrease in Fluorescence ([7]; 2 Hours): 13% | Percent Decrease in Fluorescence ([7]; 4 Hours): 13% | Percent Decrease in Fluorescence ([7]; 24 Hours): 50%
Structure (SMILES): O=C(O)C1=C(O)/C(=C2/C(=O)C(c3c(O)cc(O)c(C(=O)O)c3O)=C2O)C(O)=CC1=O [Carboxyphloroglucinol Squaraine Dye]

Reference: patent US6423547B1, “Non-covalent bioconjugates useful for diagnosis and therapy” (Mallinckrodt Inc., priority 1998, dated 2002)
